As a reminder, the IC50 is the concentration at which inhibition is half-maximal. What is called CC50 is the concentration that lowers cell viability or growth by half. What is called AC50 is the midpoint of the concentration-response curve, whichever way the signal moves.

One experiment deals with T1, Hexokinase HKDC1 (Homo sapiens, UniProt Q2TB90).
T1 sequence (Q2TB90 whole entry): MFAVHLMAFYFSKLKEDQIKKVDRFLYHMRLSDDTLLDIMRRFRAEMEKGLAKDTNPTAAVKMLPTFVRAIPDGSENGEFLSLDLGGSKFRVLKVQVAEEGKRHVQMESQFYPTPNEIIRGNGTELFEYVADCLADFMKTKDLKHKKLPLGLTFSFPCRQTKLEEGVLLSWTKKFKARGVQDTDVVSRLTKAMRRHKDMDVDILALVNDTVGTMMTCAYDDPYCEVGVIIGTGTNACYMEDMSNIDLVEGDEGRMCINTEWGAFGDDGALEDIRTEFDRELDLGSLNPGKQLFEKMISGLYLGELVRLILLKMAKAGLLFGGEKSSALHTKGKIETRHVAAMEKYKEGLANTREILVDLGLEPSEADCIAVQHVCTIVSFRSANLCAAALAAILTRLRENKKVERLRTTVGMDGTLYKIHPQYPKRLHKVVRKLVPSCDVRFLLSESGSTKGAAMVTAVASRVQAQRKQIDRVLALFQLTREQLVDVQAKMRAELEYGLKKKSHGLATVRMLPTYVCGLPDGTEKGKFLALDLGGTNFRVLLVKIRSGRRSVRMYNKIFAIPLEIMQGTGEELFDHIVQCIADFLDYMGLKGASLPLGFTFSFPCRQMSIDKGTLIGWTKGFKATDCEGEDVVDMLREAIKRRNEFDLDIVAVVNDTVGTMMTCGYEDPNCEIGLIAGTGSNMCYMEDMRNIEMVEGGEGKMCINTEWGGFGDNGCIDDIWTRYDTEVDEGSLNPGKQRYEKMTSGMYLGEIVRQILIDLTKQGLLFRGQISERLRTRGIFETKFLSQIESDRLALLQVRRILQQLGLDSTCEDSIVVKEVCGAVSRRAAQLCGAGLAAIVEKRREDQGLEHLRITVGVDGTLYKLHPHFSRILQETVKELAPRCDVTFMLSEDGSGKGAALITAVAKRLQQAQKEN
Kind of experiment: HKDC1 hexokinase inhibitors, dose response, biochemical, W721R variant (AID 504729). The class given is functional.

The target of a further experiment is Genome polyprotein (dengue virus type 2, UniProt P29990). Kind of experiment: Dengue-2 NS5 methyltransferase inhibitors, primary screen, biochemical, confirmation dose response (AID 588689). The class given is functional.
Experiment [1] is described as follows: THP-1 cell cytotoxicity, dose response, cytotoxicity control for Vif-APOBEC3G degradation inhibitor project, THP-1 cells (AID 1117359). The experiment is classed as functional. The note with it: Human immunodeficiency virus 1, THP-1.
The next experiment deals with Vero. Kind of experiment: Vero cell cytotoxicity, cytotoxicity control for flavivirus capping enzyme inhibitors (AID 588742). The experiment is classed as functional. The note with it: Chlorocebus sabaeus.
The target of experiment [2] is Induced myeloid leukemia cell differentiation protein Mcl-1 (Homo sapiens, UniProt Q07820). The class given is functional.
For experiment [3], the target named is T2, Rac GTPase-activating protein 1 (Homo sapiens, UniProt Q9H0H5).
T2 sequence (Q9H0H5 whole entry): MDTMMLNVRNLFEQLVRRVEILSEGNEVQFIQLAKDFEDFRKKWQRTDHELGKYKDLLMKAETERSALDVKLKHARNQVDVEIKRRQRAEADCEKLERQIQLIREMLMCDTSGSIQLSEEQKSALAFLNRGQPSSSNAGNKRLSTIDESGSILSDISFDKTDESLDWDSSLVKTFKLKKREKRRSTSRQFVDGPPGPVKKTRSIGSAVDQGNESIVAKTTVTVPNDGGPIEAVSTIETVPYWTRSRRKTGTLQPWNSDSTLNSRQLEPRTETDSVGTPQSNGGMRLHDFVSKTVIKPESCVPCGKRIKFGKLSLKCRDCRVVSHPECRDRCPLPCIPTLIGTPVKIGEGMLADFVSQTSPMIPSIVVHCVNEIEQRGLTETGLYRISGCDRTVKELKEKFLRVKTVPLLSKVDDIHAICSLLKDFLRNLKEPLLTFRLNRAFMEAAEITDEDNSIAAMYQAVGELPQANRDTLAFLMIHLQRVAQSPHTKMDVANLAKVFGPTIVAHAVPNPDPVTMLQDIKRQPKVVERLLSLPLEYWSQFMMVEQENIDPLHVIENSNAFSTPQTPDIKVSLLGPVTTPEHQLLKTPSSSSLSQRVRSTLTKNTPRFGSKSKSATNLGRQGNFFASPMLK
Kind of experiment: MgcRacGAP GTPase-activating activity inhibitors, confirmation, biochemical, ADP Hunter fluorescence, primary and confirmatory (AID 624330). The experiment is classed as functional.

Experiment [4] concerns the target T3, Corticotropin-releasing factor receptor 2/Corticotropin-releasing factor-binding protein (Homo sapiens, UniProt P24387+Q13324).
T3 sequence (Q13324 whole entry): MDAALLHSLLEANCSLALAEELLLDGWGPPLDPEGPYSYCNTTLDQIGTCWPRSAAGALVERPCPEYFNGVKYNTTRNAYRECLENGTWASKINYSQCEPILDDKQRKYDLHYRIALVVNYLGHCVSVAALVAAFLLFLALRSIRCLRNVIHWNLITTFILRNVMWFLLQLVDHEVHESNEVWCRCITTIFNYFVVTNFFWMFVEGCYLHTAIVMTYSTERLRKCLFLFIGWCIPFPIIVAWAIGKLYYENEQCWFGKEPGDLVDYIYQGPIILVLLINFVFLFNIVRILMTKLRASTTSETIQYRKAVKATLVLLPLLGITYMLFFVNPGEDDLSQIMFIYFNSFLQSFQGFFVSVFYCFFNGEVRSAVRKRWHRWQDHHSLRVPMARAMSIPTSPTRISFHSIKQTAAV
T3 sequence (P24387 whole entry): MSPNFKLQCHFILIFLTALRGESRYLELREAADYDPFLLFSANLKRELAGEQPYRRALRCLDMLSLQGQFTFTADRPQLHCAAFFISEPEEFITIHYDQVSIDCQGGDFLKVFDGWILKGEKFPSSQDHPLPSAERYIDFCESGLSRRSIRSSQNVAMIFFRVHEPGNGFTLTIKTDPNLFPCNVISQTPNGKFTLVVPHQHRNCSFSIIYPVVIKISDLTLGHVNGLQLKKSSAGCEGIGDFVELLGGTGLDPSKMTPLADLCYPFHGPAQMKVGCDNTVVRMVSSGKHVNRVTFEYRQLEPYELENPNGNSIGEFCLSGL
Kind of experiment: activators of CRF receptor 2 with binding protein – uHTS hits, confirmation (AID 602473). The experiment is classed as functional. The note with it: read-out: EC50_Mean.

Experiment [5] concerns the target T4, Endoribonuclease toxin MazF (Escherichia coli K-12, UniProt P0AE70).
T4 sequence (P0AE70 whole entry): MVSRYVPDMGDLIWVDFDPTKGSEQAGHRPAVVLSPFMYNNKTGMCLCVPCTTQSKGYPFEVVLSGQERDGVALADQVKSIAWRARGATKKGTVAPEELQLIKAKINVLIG
Kind of experiment: MazF toxin RNase activators, dose response, biochemical, fluorescence, single-stranded RNA substrate, uHTS hits (AID 588481). The class given is functional.

In experiment [6] the target is T4, Endoribonuclease toxin MazF. Kind of experiment: fluorescent RNA oligo signal without MazF, dose response, counter-screen for MazEF activator project, biochemical, fluorescence, single-stranded RNase substrate (AID 588502). The experiment is classed as functional. In general terms: The purpose of a counterscreen is to sort out artefacts and off-target activity.

The target in experiment [7] is T5, RNA-binding protein pos-1 (Caenorhabditis elegans, UniProt G5EF15).
T5 sequence (G5EF15 whole entry): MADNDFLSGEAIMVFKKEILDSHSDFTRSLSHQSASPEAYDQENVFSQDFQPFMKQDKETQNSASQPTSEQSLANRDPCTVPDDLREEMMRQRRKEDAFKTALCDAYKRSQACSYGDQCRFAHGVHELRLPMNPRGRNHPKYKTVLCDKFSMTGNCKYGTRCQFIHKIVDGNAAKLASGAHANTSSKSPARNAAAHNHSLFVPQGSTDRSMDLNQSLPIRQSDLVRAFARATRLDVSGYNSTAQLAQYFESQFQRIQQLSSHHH
Kind of experiment: inhibitors of POS-1/mex-3 RNA binding, dose response, biochemical, fluorescence polarization (AID 1964).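 Note: purified POS-1 fused to maltose binding protein made in E. coli; potency of compounds blocking POS-1 binding to fluorescent RNA.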 In general terms: Polarisation of emitted light reports the rotation of a fluorescent probe.

Experiment [8] deals with T6, Zinc finger protein mex-5 (Caenorhabditis elegans, UniProt Q9XUB2).
T6 sequence (Q9XUB2 whole entry): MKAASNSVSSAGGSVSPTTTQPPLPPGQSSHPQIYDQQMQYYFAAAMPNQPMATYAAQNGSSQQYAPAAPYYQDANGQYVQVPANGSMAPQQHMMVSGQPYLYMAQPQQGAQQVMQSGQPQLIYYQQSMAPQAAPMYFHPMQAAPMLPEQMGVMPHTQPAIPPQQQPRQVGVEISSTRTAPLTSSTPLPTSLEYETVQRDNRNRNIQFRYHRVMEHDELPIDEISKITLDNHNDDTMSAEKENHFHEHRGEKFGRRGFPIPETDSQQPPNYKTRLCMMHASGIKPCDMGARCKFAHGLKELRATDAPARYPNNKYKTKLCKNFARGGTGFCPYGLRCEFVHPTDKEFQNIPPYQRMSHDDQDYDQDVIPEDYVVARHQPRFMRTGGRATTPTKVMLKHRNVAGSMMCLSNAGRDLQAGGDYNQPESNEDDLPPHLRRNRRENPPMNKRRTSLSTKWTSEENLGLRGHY
Kind of experiment: MEX-5/TCR-2 RNA interaction inhibitors, dose response, biochemical, C. elegans, fluorescence polarization (AID 1960).

The next experiment deals with HeLa. Kind of experiment: HeLa cell cytotoxicity, dose response, cytotoxicity control, 24 h, cherry-picked samples (AID 504726).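 Note: potency for cytotoxicity as loss of luminescence signal.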 The class given is functional, cell-based. The note with it: Homo sapiens.

The structures appear in SMILES notation. Calls of active or inactive are those of the source.

Genome polyprotein, sequence (P29990 2492-3391 limits assumed): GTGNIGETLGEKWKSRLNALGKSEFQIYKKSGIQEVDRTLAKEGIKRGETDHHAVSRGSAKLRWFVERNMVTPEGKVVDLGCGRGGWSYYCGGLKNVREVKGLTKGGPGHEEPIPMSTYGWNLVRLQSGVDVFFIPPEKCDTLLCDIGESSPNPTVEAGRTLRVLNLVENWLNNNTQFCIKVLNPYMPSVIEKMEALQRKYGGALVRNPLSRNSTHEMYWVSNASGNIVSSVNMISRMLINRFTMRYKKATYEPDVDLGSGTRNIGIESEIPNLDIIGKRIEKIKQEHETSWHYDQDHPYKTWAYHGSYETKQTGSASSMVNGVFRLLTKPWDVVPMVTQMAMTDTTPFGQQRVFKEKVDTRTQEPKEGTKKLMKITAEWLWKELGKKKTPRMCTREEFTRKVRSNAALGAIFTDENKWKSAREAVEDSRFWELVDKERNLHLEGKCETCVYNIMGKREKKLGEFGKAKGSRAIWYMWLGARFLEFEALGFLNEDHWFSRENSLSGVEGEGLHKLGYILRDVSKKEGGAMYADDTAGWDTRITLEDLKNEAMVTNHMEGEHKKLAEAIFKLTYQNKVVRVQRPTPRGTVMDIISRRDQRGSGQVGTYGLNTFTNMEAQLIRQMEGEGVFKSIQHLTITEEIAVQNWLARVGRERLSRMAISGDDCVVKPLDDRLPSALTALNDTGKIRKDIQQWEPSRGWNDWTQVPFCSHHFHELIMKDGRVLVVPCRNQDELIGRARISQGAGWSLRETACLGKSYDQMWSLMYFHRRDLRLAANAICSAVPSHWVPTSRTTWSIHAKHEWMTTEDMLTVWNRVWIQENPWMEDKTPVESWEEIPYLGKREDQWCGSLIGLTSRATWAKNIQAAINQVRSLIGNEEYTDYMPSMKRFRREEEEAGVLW
Induced myeloid leukemia cell differentiation protein Mcl-1, sequence (Q07820 whole entry): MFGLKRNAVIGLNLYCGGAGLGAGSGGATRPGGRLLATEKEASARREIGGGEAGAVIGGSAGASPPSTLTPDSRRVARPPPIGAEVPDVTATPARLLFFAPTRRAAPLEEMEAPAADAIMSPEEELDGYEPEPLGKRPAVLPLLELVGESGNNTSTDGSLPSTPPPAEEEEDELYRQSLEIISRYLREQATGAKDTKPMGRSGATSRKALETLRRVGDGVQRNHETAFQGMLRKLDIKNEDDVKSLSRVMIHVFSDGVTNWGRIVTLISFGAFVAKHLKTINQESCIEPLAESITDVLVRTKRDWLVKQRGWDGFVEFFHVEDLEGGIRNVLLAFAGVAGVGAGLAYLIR

Consider `COc1ccc2[nH]c3c4c(ccc3c2c1)C(=O)C=CC4=O`, for which the IC50 on Hexokinase HKDC1 is 19.1 µM (active); at Genome polyprotein, > 100 µM (active); in [2], 0.919 µM (active). Moreover, the half-maximal cytotoxic concentration (CC50) was 3.94 µM (active) in experiment [1] and 17.9 µM (active) with Vero.
Take `Cc1cc(O)ccc1/N=C/c1c(C(F)(F)F)n[nH]c1O`: the 50% cytotoxic concentration (CC50) in the experiment with Vero is > 40 µM (active). For the same molecule, the IC50 in experiment [3] was 30.2 µM (active).
As to `CSc1nc(-c2ccc(N(C)C)cc2)c(C#N)c(=O)n1C`, the EC50 is 7.08 µM (active) in experiment [4], > 99 µM (inactive) in experiment [5] and > 99 µM (inactive) in [6].
On to `Cc1ccc(N=Nc2c(O)[nH]c3ccc(F)cc23)cc1`, for which the EC50 is > 99 µM (inactive) in [5], > 300 µM (inconclusive) in [7], > 300 µM (inconclusive) in [8] and 29.9 µM (inactive) in [6]. Further, the AC50 in the experiment on HeLa is 251 µM (active).
